The target in the assay is LdGSK-3 (Leishmania donovani, UniProt A6N857). The assay can be described thus: Inhibition of LdGSK-3 with Kinase Glo. Type of assay: biochemical. Conditions: for % inhibition @ 10µM (initial screening on LdGSK3): Table S2. (In Kinase-Glo more light means more ATP remaining.)
Chain of LdGSK-3 (A6N857 entry or part of it): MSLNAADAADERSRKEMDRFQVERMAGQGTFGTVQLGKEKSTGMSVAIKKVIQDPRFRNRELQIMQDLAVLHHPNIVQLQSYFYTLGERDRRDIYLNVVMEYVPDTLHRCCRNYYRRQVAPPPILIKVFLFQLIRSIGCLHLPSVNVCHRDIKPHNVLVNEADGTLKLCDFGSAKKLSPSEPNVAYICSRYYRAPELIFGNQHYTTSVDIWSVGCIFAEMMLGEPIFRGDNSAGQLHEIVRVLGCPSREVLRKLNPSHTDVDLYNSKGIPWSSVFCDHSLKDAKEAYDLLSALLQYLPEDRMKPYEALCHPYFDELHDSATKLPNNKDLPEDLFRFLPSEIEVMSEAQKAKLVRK

Protocol: Assessment of inhibition of LdGSK-3 with Kinase Glo^TM
The reaction was allowed to proceed for 30 min at 30 °C, then it was incubated at room temperature for another 10 min after addition of Kinase Glo reagents (Promega, Ref. V6712). ATP consumption by LdGSK-3 was measured indirectly through end-point luminescence measurement of each well in a Varioskan Flash microplate reader (Thermo).

On to `Nc1nc(-c2ccccn2)nc(-n2nc(-c3ccccc3)cc2N)n1.O=C(O)C(F)(F)F.O=C(O)C(F)(F)F.O=C(O)C(F)(F)F.O=C(O)C(F)(F)F.O=C(O)C(F)(F)F.O=C(O)C(F)(F)F.O=C(O)C(F)(F)F.O=C(O)C(F)(F)F` [Compound 177], for which the “% inhibition @ 10µM (initial screening on LdGSK3)” value (shortened to “% inhibition @ 10µM”) stood at 17.70±1.20%. The same measure, in the same setting: the value for `O=C(Nc1nc(-c2ccccn2)cs1)N1C[C@H]2C[C@@]2(c2ccccc2)C1` [Compound 47] was 1.55±0.55%; that for `CCCCn1nnnc1CSc1nc(C)cc(C)c1C#N` [Compound 161] was 3.00±3.05%; that for `Cn1ccnc1-c1nc(NCc2ccccc2Cl)cc(C2CC2)n1.O=C(O)C(F)(F)F` [Compound 129] was 8.90±6.75%. The same measure, in the same setting: the value for `O=C(Nc1ccccc1)Nc1nc(-c2ccccn2)cs1` [Compound 64] was 1.40±0.95%; that for `COc1ccc(-c2csc(NC(=O)c3ccc([N+](=O)[O-])s3)n2)cc1` [Compound 201] was 18.65±3.35%; that for `CCc1cc(C(=O)Nc2nccn2-c2ccccc2)cs1` [Compound 93] was -2.35±1.95%. The same measure, in the same setting: to `COc1ccc(Oc2ccc(C(C)N(C)c3ncc4c(N)nc(N)nc4n3)cc2)cc1` (centres unmarked) [Compound 56] belongs 0.50±2.95%; to `COc1cccc(CN(C)Cc2nc(N)c3c(C)c(C)sc3n2)c1` [Compound 81], 6.35±3.00%. In the case of `Cc1ccc2c(c1)SC(C(=O)Nc1n[nH]c(-c3ccccn3)n1)C2` (centres unmarked) [Compound 115], the “% inhibition @ 10µM” value is on record as 3.20±0.80%. The same measure, in the same setting: to `CN(C)S(=O)(=O)c1cccc(CSc2nnc(-c3ccc4c(c3)OCO4)o2)c1` [Compound 167] belongs 38.45±1.35%; to `O=C(CN(Cc1ccccn1)Cc1ccccn1)NCc1csc(-c2cccs2)n1.O=C(O)C(F)(F)F` [Compound 68], 6.80±1.95%; to `CCOc1ccc(CN(C)Cc2nc(N)nc(Nc3ccc(C)cc3)n2)cc1` [Compound 78], 4.90±1.45%. In the case of `COc1ccc(-c2cnc(C)o2)cc1S(=O)(=O)Nc1ccc(C)cc1C` [Compound 160], the “% inhibition @ 10µM” value stood at 12.60±3.50%. As to `NC(=O)c1cc(NC(=O)c2ccccc2COc2ccccc2)ccc1Cl` [Compound 105], the “% inhibition @ 10µM” value was -0.45±1.10%. Still for that read-out and setting: the value for `Cc1cccc(Nc2nc(-c3ccccn3)cs2)n1` [Compound 147] was 13.40±2.35%.

One may read the IC50 as the point on the concentration scale where inhibition reaches its midpoint. Consider `O=C1Nc2ccc(S(=O)(=O)O)cc2C1=C1Nc2ccccc2C1=NO` [Indirubin-3’-monoxime-5-sulphonic acid, reference compound], for which, where the note is “Table 1, read-out: LdGSK-3 IC50”, the IC50 is 2400 nM. For `CCN(CC)c1nc(Nc2ccncc2)nc2ccccc12` [Compound 36], the “% inhibition @ 10µM” value is reported as 7.10±1.90%. The same measure, in the same setting: to `CNc1nc(C)nc(N2CCc3cc(C(=O)NCc4ccc(-c5ccn[nH]5)cc4Cl)ccc32)n1.O=C(O)C(F)(F)F` [Compound 25] belongs -13.55±3.90%; to `CCCn1c(NC(=O)CCn2cc(Br)cn2)nc2ccccc21` [Compound 70], 3.80±1.25%; to `COc1ccc(C2C3CCCCC3(O)CCN2CC(=O)Nc2ccc(Cl)cc2Cl)cc1` (centres unmarked) [Compound 194], 0.90±4.25%. The same measure, in the same setting: the value for `CCCc1cc(N)nc(-c2cc(CCC)cc(N)n2)c1` [Compound 33] was -0.35±3.85%. On to `O=C(Cc1ccc2c(c1)CCC2)Nc1n[nH]c(-c2ccccn2)n1` [Compound 123], for which the “% inhibition @ 10µM” value amounted to 12.15±3.90%.

For the molecule `O=C(Nc1nc2ccccc2[nH]1)c1ccc2nc[nH]c2c1` [Compound 53], the “% inhibition @ 10µM” value was -1.60±1.50%.

On to `Cc1cc(C)cc(NS(=O)(=O)c2cc(-c3cc(C)[nH]n3)ccc2C)c1` [Compound 51], for which the “% inhibition @ 10µM” value is on record as 5.95±1.25%.

`COc1ccc(Nc2nc(-c3ccccn3)cs2)c(OC)c1` [Compound 157]: the “% inhibition @ 10µM” value is listed as 4.50±4.45%.

For `Cc1nn(-c2nc(N)nc(-c3ccccn3)n2)c(N)c1-c1ccccc1.O=C(O)C(F)(F)F.O=C(O)C(F)(F)F` [Compound 29], the “% inhibition @ 10µM” value was 3.80±1.90%. `c1ccc2sc(Nc3nc4ncccc4[nH]3)nc2c1` [Compound 86]: the “% inhibition @ 10µM” value turned out to be 6.55±2.70%. Turning to `O=C(c1cccc(Nc2ncc(-c3ccc4c(c3)OCO4)cn2)c1)N1CCOCC1` [Compound 189], the “% inhibition @ 10µM” value is given as 12.20±0.75%. On to `COc1ccc(-c2cc(C)no2)cc1S(=O)(=O)Nc1ccc(C)c(C)c1` [Compound 170], for which the “% inhibition @ 10µM” value was 13.20±1.65%. Still for that read-out and setting: the value for `COc1ccc(Nc2nc(-c3ccccn3)cc(N3CCCC(O)C3)n2)cc1` (centres unmarked) [Compound 42] was 5.30±2.55%; that for `Cc1ccc(NC(C)C(=O)Nc2ccc(C#N)cc2)cc1S(=O)(=O)N1CCCCC1` (centres unmarked) [Compound 137] was 9.35±1.30%; that for `Cc1nn(-c2nc3ccccc3[nH]2)c2c1C(c1ccc(O)cc1)CC(=O)N2` (centres unmarked) [Compound 120] was 18.15±1.70%. For the molecule `Cl.c1ccc(CNc2cccc3ccncc23)cc1` [Compound 126], the “% inhibition @ 10µM” value was found to be 17.10±1.10%. The same measure, in the same setting: the value for `Cc1cc(NC(=O)c2ccc([N+](=O)[O-])s2)ccc1Br` [Compound 186] was 3.65±2.60%; that for `Cc1nnc(-c2nc(NCc3ccc(Cl)cc3)c3cccnc3c2O)[nH]1` [Compound 31] was 8.20±1.70%. Still for that read-out and setting: the value for `CC(C)(C)Nc1nc(-c2ccccn2)nc2ccccc12` [Compound 192] was -2.40±2.70%; that for `COc1cccc(Nc2cc(C)nc(-c3ccccn3)n2)c1` [Compound 32] was 8.80±4.10%; that for `CN(C)CCN(C)Cc1ccc(Cl)cc1NS(=O)(=O)c1ccc(Cl)c(Cl)c1` [Compound 204] was 8.00±4.85%. On the same count and under the same terms, to `c1ccc(Nc2nc(-c3ccccn3)cc(N3CCOCC3)n2)cc1` [Compound 34] belongs -2.00±2.70%; to `N#Cc1cccc(Nc2nccc(N3CCC(NS(=O)(=O)c4cccc(C#N)c4)CC3)n2)c1.O=C(O)C(F)(F)F` [Compound 100], 37.05±1.50%; to `Cc1ccc(Nc2nc(C3CCCN3Cc3ccn[nH]3)cs2)nc1` (centres unmarked) [Compound 65], -0.35±2.35%. Regarding `O=C(CSc1nnc(-c2ccc3c(c2)OCO3)o1)N(Cc1ccco1)CC(F)(F)F` [Compound 184], the “% inhibition @ 10µM” value came to 53.23±3.29%. The “percentage of inhibition of LdGSK-3” value (assayed at 10 µM) is given as “higher than 50%”. In the case of `Oc1c(-c2n[nH]c(CCc3ccccc3)n2)ncc2cccnc12` [Compound 66], the “% inhibition @ 10µM” value was 0.90±0.90%. On the same count and under the same terms, the value for `Oc1c(-c2n[nH]c(Cc3ccc(Cl)cc3)n2)ncc2cccnc12` [Compound 52] was 5.05±2.35%; that for `CC1CN(Cc2ccc(C#N)cc2)CCN1c1ccc(NC(=O)c2ccccc2F)cc1.O=C(O)C(F)(F)F.O=C(O)C(F)(F)F` (centres unmarked) [Compound 199] was 8.70±1.75%. On to `O=C(c1ccc(Cl)cc1)c1ccc(OC(=O)N2CCOCC2)cc1` [Compound 163], for which the “% inhibition @ 10µM” value is 3.10±0.70%. Same read-out and setting: to `Cc1nc2c(-c3ncn[nH]3)cc(NC(=O)Cc3ccccc3)cn2c1C.O=CO` [Compound 37] belongs 5.90±4.55%.

Take `COc1ccc(CNc2nsc3ccccc23)cc1OC` [Compound 150]: the “% inhibition @ 10µM” value came out at 13.55±4.65%.

On to `CC(c1cc(Cl)cc(Cl)c1)N(C)c1ncc2c(N)nc(N)nc2n1` (centres unmarked) [Compound 75], for which the “% inhibition @ 10µM” value amounted to 10.05±1.10%.

For `CN(CCOc1ccc(Cl)cc1)Cc1nc(N)nc(N(C)C)n1` [Compound 44], the “% inhibition @ 10µM” value is -2.45±1.00%. On the same count and under the same terms, to `COCc1cc(Nc2ccccc2)nc(-c2ccccn2)n1` [Compound 35] belongs 2.90±4.05%.

As for `CCN(Cc1nc2ccc(C(=O)N3CCN(c4ncccn4)CC3)cc2[nH]1)C1CCCc2cccnc21` (centres unmarked) [Compound 182], the “% inhibition @ 10µM” value was found to be 9.60±1.20%.

As to `COc1ccccc1C1CC(c2ccc(NS(C)(=O)=O)cc2)=NN1C(=O)c1cccs1` (centres unmarked) [Compound 195], the “% inhibition @ 10µM” value stood at 16.55±4.05%. Same read-out and setting: the value for `COCc1cc(Nc2cccc(Cl)c2)nc(-c2ccccn2)n1` [Compound 39] was 9.00±3.05%. For the molecule `Cc1ccccc1CNC(=O)CN(Cc1ccccn1)Cc1ccccn1.O=C(O)C(F)(F)F` [Compound 203], the “% inhibition @ 10µM” value was 4.90±2.30%. For `O=C(Nc1ccc(C(F)(F)F)cc1)Nc1cccc([N+](=O)[O-])c1` [Compound 185], the “% inhibition @ 10µM” value is reported as 1.70±0.75%. On to `CN(C)c1ccc(N)cc1CN(CC1CCCO1)S(C)(=O)=O` (centres unmarked) [Compound 136], for which the “% inhibition @ 10µM” value is 13.95±3.25%. With `COc1ccc2ncc(=O)n(CCN3CCC(NCc4ccc(-c5cccs5)cc4)CC3)c2n1` [Compound 200], the “% inhibition @ 10µM” value came out at 20.95±1.30%. On to `COc1ccc(-c2cnc(NC(=O)c3cc(-c4ccccn4)n[nH]3)n2C)cc1` [Compound 90], for which the “% inhibition @ 10µM” value worked out at 6.40±2.45%. On the same count and under the same terms, to `c1ccc(-c2nc(NCc3ccco3)c3ccccc3n2)nc1` [Compound 87] belongs -0.05±0.95%; to `COc1ccc2ncc(F)c(CCN3CC[C@@H](NC(=O)c4cc5c(s4)CCC5)[C@@H](O)C3)c2n1.Cl` [Compound 173], 8.60±2.90%. On to `COc1ccc(OC)c2c(=O)c(Cc3ccccc3)c(C)[nH]c12` [Compound 110], for which the “% inhibition @ 10µM” value is given as -0.10±5.35%. Same read-out and setting: the value for `O=C(Nc1ccc(S(=O)(=O)N2CCCC2)cc1)c1ccc([N+](=O)[O-])s1` [Compound 59] was 16.15±4.10%.

Values taken from paper PMC6882465, “Towards discovery of new leishmanicidal scaffolds able to inhibit Leishmania GSK-3” (Journal of Enzyme Inhibition and Medicinal Chemistry, 2019).
